Biological target: T1, 5-HT2B Receptors (Homo sapiens, UniProt P41595)
T1 construct: expressed in transfected cells
Assay: Antagonist activity assay (FLIPR, CHO-K1/5-HT2B stable cell line)
Assay type: cell-based
Settings: for inhibition at 1 µM: 1 μM compound, CHO-K1/5-HT2B cells stimulated with 12 nM (EC80) 5-HT; for IC50: CHO-K1/5-HT2B cells, antagonist mode vs EC80 5-HT
Method: Briefly, CHO-K1 cells expressing 5-HT2B were seeded in a 384-well black-wall, clear-bottom plate at a density of 20,000 cells per well in 20 μL of growth medium (10% dialyzed FBS+90% F12), 18 hours prior to the day of experiment and maintained at 37° C./5% CO2. 20 μL of dye-loading solution and 10 μL of tested compound solution (at concentrations five times to the final assay concentrations) were added into the well. Then the plate was placed into a 37° C. incubator for 60 minutes, followed by 15 minutes at room temperature. At last, 12.5 μL of control agonist (at concentrations five times to the EC80 concentrations) was added. The control agonist was added to reading plate at 20 s and the fluorescence signal was monitored for an additional 100 s (21 s to 120 s). In screening, cells stimulated with assay buffer (HBSS-HEPES) containing 0.1% DMSO were chosen as background; cell stimulated with 12 nM (EC80 of the cell line) of 5-HT were chosen as the agonist control; cell treated with SB206553 were chosen as positive control of the screening.
Data acquisition and analyses are performed using ScreenWorks (version 3.1) program. The average fluorescent intensity value during 1 s to 20 s calculated as the baseline reading. The relative fluorescent units (ΔRFU) intensity values were calculated with the maximal fluorescent units (21 s to 120 s) subtracting the average value of baseline reading. The % inhibition of the test article is calculated from the following equation: % inhibition=[1−(ΔRFUCompound−ΔRFUBackground)/(ΔRFUAgonist control−ΔRFUBackground)]*100

T1 sequence (P41595 whole entry): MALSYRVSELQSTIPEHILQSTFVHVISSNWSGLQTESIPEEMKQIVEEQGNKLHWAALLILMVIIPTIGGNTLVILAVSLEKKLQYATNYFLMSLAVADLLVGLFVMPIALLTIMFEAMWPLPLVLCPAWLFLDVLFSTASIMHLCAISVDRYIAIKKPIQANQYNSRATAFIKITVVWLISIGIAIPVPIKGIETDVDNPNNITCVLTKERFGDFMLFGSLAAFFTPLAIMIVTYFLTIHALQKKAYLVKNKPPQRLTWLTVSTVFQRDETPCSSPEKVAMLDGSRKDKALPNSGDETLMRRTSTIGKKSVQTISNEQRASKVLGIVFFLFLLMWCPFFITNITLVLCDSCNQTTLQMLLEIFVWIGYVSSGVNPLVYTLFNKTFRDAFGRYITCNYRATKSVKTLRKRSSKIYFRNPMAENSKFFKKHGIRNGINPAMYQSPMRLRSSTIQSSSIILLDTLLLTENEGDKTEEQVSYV

Row | SMILES | inhibition at 1 µM | IC50
1 | CC1(C)N=C(N)N=C(Nc2ccccc2)N1 [1-a] | < 50% | –
2 | COc1ccccc1NC1=NC(N)=NC(C)(C)N1 [1-b] | < 50% | –
3 | CC1(C)N=C(N)N=C(Nc2cccc(Br)c2)N1 [1-c] | 75.9 ± 11.5% | 328 nM
4 | CC1(C)N=C(N)N=C(Nc2ccc(Cl)cc2)N1 [1-d] | 93.1 ± 4.2% | 1640 nM
5 | CC1(C)N=C(N)N=C(Nc2ccc(Br)cc2)N1 [1-e] | < 50% | –
6 | CC1(C)N=C(N)N=C(Nc2ccc(I)cc2)N1 [1-f] | < 50% | 2510 nM
7 | CCOc1ccc(NC2=NC(N)=NC(C)(C)N2)cc1 [1-g] | < 50% | –
8 | COc1ccccc1NC1=NC(N)=NC2(CCCC2)N1 [1-h] | < 50% | –
9 | Cc1cccc(NC2=NC(N)=NC3(CCCC3)N2)c1 [1-i] | < 50% | –
10 | COc1cccc(NC2=NC(N)=NC3(CCCC3)N2)c1 [2-a] | 63.4 ± 15.1% | 1060 nM
11 | NC1=NC2(CCCC2)NC(Nc2ccc(F)cc2)=N1 [2-b] | < 50% | –
12 | Cc1ccc(C)c(NC2=NC(N)=NC3(CCCC3)N2)c1 [2-c] | < 50% | –
13 | Cc1cccc(C)c1NC1=NC(N)=NC2(CCCC2)N1 [2-d] | < 50% | –
14 | NC1=NC2(CCCCC2)NC(Nc2ccccc2)=N1 [3-a] | < 50% | –
15 | Cc1ccccc1NC1=NC(N)=NC2(CCCCC2)N1 [3-b] | < 50% | –
16 | COc1ccccc1NC1=NC(N)=NC2(CCCCC2)N1 [3-c] | < 50% | –
17 | NC1=NC2(CCCCC2)NC(Nc2cccc(F)c2)=N1 [3-d] | 90.9 ± 2.9% | –
18 | NC1=NC2(CCCCC2)NC(Nc2cccc(Cl)c2)=N1 [3-e1] | ~95.5% | –
19 | NC1=NC2(CCCCC2)NC(Nc2cccc(Br)c2)=N1 [3-e2] | 97.4 ± 2.2% | 33.4 nM
20 | CCOC(=O)c1cccc(NC2=NC(N)=NC3(CCCCC3)N2)c1 [3-i] | 107.2 ± 0.6% | 27.3 nM
21 | NC1=NC2(CCCCC2)NC(Nc2ccc(Cl)cc2)=N1 [3-n] | 57.2 ± 5.4% | 531 nM
22 | CCOC(=O)c1cccc(NC2=NC(N(C)C)=NC3(CCCCC3)N2)c1 [3-y] | 91.8 ± 0.4% | 284 nM

The next lines start with the values.

Row | inhibition at 1 µM | IC50 | SMILES
23 | 102 ± 4.5% | – | NC1=NC2(CCCCC2)NC(Nc2cccc(I)c2)=N1 [3-f]
24 | 84.6 ± 1.2% | 280 nM | COc1cccc(NC2=NC(N)=NC3(CCCCC3)N2)c1 [3-g]
25 | < 50% | – | NC1=NC2(CCCCC2)NC(Nc2cccc(C(=O)O)c2)=N1 [3-h]
26 | 95.5 ± 4.8% | 104 nM | CCNC(=O)c1cccc(NC2=NC(N)=NC3(CCCCC3)N2)c1 [3-j, 3-(4-amino-1,3,5-triazaspiro[5.5]undeca-2,4-dien-2-ylamino)-N-ethylbenzamide]
27 | 110 ± 2.7% | 18.1 nM | CCCOC(=O)c1cccc(NC2=NC(N)=NC3(CCCCC3)N2)c1 [3-k]
28 | < 50% | – | CCN(CC)C(=O)c1cccc(NC2=NC(N)=NC3(CCCCC3)N2)c1 [3-l]
29 | 50.2 ± 8% | 486 nM | Cc1ccc(NC2=NC(N)=NC3(CCCCC3)N2)cc1 [3-m]
30 | < 50% | – | CN(C)c1ccc(NC2=NC(N)=NC3(CCCCC3)N2)cc1 [3-o]
31 | 109 ± 4.2% | – | CCOC(=O)c1ccc(NC2=NC(N)=NC3(CCCCC3)N2)cc1 [3-p]
32 | < 50% | – | NC1=NC2(CCCCC2)NC(Nc2ccc(F)cc2F)=N1 [3-q]
33 | 66.5 ± 2.1% | – | NC1=NC2(CCCCC2)NC(Nc2ccc(F)c(F)c2)=N1 [3-r]
34 | 95.7 ± 1.9% | 177 nM | Cc1ccc(NC2=NC(N)=NC3(CCCCC3)N2)cc1C [3-s]
35 | 69.1 ± 2.7% | 476 nM | Cc1cc(C)cc(NC2=NC(N)=NC3(CCCCC3)N2)c1 [3-t]
36 | 81.1 ± 6.7% | 622 nM | COc1ccc(OC)c(NC2=NC(N)=NC3(CCCCC3)N2)c1 [3-u]
37 | 108 ± 1.5% | – | CCOC(=O)c1cc(NC2=NC(N)=NC3(CCCCC3)N2)ccc1C [3-v]
38 | 92.8 ± 3.1% | – | CCOC(=O)c1cc(NC2=NC(N)=NC3(CCCCC3)N2)cc(Br)c1C [3-w]
39 | 108% | 49.4 nM | CCOC(=O)c1cccc(NC2=NC(NC)=NC3(CCCCC3)N2)c1 [3-x, ethyl 3-(4-(methylamino)-1,3,5-triazaspiro[5.5]undeca-2,4-dien-2-ylamino)benzoate]
40 | 106 ± 0.8% | 35.8 nM | CCCC(=O)c1cccc(NC2=NC(N)=NC3(CCCCC3)N2)c1 [3-z]

From US9751845B2, “5-HT2B antagonists” (National Institute of Biological Sciences, Beijing, priority 2014, dated 2017)
